Assay results published in US20060189645A1, “Novel 6-phenylphenantridines” (Altana Pharma AG, priority 2003, published 2006).

Legend:
PDE4 = assay: Inhibition of PDE4 activity ([3H]cAMP hydrolysis, cytosol from human neutrophils); assay type: biochemical; conditions: 0.5 μM cAMP, Motapizone 1 μM to suppress PDE3, 15 min at 37° C.
Method: Method for Measuring Inhibition of PDE4 Activity
PDE4 activity was determined as described by Thompson et al. (Adv Cycl Nucl Res 10: 69-92, 1979) with some modifications (Bauer and Schwabe, Naunyn-Schmiedeberg's Arch Pharmacol 311: 193-198, 1980). At a final assay volume of 200 μl (96 well microtiter plates) the assay mixture contained 20 mM Tris (pH 7.4), 5 mM MgCl2, 0.5 μM cAMP, [^3H]cAMP (about 30,000 cpm/assay), the test compound and an aliquot of cytosol from human neutrophils which mainly contains PDE4 activity as described by Schudt et al. (Naunyn-Schmiedeberg's Arch Pharmacol 344: 682-690, 1991); the PDE3-specific inhibitor Motapizone (1 μM) was included to suppress PDE3 activity originating from contaminating platelets. Serial dilutions of the compounds were prepared in DMSO and further diluted 1:100 (v/v) in the assays to obtain the desired final concentrations of the inhibitors at a DMSO concentration of 1% (v/v) which by itself only slightly affected PDE4 activity.
After preincubation for 5 min at 37° C., the reaction was started by the addition of substrate (cAMP) and the assays were incubated for further 15 min at 37° C. 50 μl of 0.2 N HCl was added to stop the reaction and the assays were left on ice for about 10 min. Following incubation with 25 μg 5′-nucleotidase (Crotalus atrox snake venom) for 10 min at 37° C., the assays were loaded on QAE Sephadex A-25 (1 ml bed volume). The columns were eluted with 2 ml of 30 mM ammonium formiate (pH 6.0) and the eluate was counted for radioactivity. Results were corrected for blank values (measured in the presence of denatured protein) which were below 5% of total radioactivity. […] The IC50-values for the compounds according to the invention for the inhibition of the PDE4 activity were determined from the concentration-inhibition curves by nonlinear-regression.

Row | SMILES | Inhibition of the PDE4 activity, −log IC50 (PDE4) | melting point [°C]
1 | COc1cc2c(cc1OC)[C@H]1CCCC[C@H]1N=C2c1ccc(C(C)=NNC(=O)c2ccncc2)cc1 [Compound 3, Isonicotinic acid {1-[4-((4aR,10bR)-8,9-dimethoxy-1,2,3,4,4a,10b-hexahydro-phenanthridin-6-yl)-phenyl]-ethylidene}-hydrazide] | 8.71 | 
2 | COc1cc2c(cc1OC)[C@H]1CCCC[C@H]1N=C2c1ccc(C(C)=NNC(C)=O)cc1 [Compound 4, Acetic acid {1-[4-((4aR,10bR)-8,9-dimethoxy-1,2,3,4,4a,10b-hexahydro-phenanthridin-6-yl)-phenyl]-ethylidene}-hydrazide] | 8.95 | 
3 | COc1cc2c(cc1OC)[C@H]1CCCC[C@H]1N=C2c1ccc(C(C)=NNC(N)=O)cc1 [Compound 6, 1-[4-((4aR,10bR)-8,9-Dimethoxy-1,2,3,4,4a,10b-hexahydro-phenanthridin-6-yl)-phenyl]-ethanone-semicarbazone] | 8.64 | 

Next, values leading:

Row | Inhibition of the PDE4 activity, −log IC50 (PDE4) | melting point [°C] | SMILES
4 | 8.62 | 162 | COc1cc2c(cc1OC)[C@H]1CCCC[C@H]1N=C2c1ccc(C(C)=NNC(=O)c2cccnc2)cc1 [Compound 1, Nicotinic acid {1-[4-((4aR,10bR)-8,9-dimethoxy-1,2,3,4,4a,10b-hexahydro-phenanthridin-6-yl)-phenyl]-ethylidene}-hydrazide]
5 | 8.61 |  | COc1cc2c(cc1OC)[C@H]1CCCC[C@H]1N=C2c1ccc(C(C)=NNC(=O)CC#N)cc1 [Compound 2, Cyano-acetic acid {1-[4-((4aR,10bR)-8,9-dimethoxy-1,2,3,4,4a,10b-hexahydro-phenanthridin-6-yl)-phenyl]-ethylidene}-hydrazide]
6 | 9.38 |  | COc1cc2c(cc1OC)[C@H]1CCCC[C@H]1N=C2c1ccc(C(=NNC(N)=O)c2ccccc2)cc1 [Compound 7, 1-[4-((4aR,10bR)-8,9-Dimethoxy-1,2,3,4,4a,10b-hexahydro-phenanthridin-6-yl)-phenyl]-1-phenyl-methanone-semicarbazone]
7 | 8.75 |  | COc1cc2c(cc1OC)C1CCCCC1N=C2c1cccc(C(C)=NNC(N)=O)c1 (centres unmarked) [Compound 37, 1-[3-((4aR10bR)-8,9-Dimethoxy-1,2,3,4,4a,10b-hexahydro-phenanthridin-6-yl)-phenyl]-ethanone-semicarbazone]
